Data: ChEMBL document CHEMBL4732086, “Targeting nuclear protein TDP-43 by cell division cycle kinase 7 inhibitors: A new therapeutic approach for amyotrophic lateral sclerosis” (Eur J Med Chem, 2021)
Calls of active or inactive are those of the source. The calls are words filed in the database; no cut-off is given here.

Tests used:
[1] = molecular target: CDC7/DBF4 (Cell division cycle 7-related protein kinase/Activator of S phase kinase) (Homo sapiens, UniProt O00311); assay: Inhibition of recombinant human CDC7/Dbf4 expressed in baculovirus infected Sf9 insect cells assessed as inhibition of fluorescein labelled substrate phosphorylation in presence of ATP measured after 60 mins by TR-FRET assay
Sequence of CDC7/DBF4 (Cell division cycle 7-related protein kinase/Activator of S phase kinase) (Q9UBU7 whole entry): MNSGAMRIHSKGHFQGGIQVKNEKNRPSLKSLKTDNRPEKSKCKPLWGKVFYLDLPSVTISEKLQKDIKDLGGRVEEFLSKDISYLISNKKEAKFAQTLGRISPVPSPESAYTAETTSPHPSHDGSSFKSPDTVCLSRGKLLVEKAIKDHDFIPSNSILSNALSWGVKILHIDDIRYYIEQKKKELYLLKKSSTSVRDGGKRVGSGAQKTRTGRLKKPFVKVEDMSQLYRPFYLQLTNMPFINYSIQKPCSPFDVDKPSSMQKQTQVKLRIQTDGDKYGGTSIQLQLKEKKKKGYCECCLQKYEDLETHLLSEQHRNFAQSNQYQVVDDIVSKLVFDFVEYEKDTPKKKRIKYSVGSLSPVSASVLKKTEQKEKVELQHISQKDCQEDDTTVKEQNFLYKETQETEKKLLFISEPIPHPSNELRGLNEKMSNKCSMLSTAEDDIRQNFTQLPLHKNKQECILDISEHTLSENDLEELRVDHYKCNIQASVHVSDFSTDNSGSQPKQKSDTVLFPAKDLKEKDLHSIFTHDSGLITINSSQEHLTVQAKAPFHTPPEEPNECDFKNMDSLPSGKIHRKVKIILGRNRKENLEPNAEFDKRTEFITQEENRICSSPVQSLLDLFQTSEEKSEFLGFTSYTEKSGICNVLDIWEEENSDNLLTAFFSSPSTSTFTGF
Sequence of CDC7/DBF4 (Cell division cycle 7-related protein kinase/Activator of S phase kinase) (O00311 whole entry): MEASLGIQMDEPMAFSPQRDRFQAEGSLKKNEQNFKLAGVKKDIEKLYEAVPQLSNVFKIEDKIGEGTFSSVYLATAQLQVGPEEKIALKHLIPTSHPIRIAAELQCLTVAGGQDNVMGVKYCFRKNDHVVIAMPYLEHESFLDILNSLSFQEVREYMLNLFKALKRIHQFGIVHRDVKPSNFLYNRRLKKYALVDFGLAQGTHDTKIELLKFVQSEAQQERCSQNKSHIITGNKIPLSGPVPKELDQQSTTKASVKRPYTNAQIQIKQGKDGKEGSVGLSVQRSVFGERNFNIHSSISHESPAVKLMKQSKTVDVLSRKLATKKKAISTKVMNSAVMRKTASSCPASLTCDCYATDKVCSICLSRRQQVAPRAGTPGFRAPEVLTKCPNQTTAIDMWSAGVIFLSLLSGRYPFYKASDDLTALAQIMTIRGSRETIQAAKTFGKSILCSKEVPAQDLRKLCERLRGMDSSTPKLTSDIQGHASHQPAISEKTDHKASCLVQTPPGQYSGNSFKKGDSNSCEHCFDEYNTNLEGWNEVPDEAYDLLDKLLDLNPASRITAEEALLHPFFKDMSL

[2] = molecular target: Cell division cycle 7-related protein kinase (Homo sapiens) (UniProt O00311); assay: Inhibition of human CDC7 in human SH-SY5Y cells assessed as prevention of ethacrynic acid-induced cell death preincubated for 1 hr followed by incubation with ethacrynic acid for 24 hrs measured at 10 uM by MTT assay relative to control; type: cell-based
Sequence of Cell division cycle 7-related protein kinase (Homo sapiens) (O00311 whole entry, looked up): as the sequence (O00311 whole entry) above

[3] = molecular target: CDC7/DBF4 (Cell division cycle 7-related protein kinase/Activator of S phase kinase) (Homo sapiens) (UniProt Q9UBU7+O00311); assay: Inhibition of recombinant human CDC7/Dbf4 expressed in baculovirus infected Sf9 insect cells assessed as inhibition of fluorescein labelled substrate phosphorylation in presence of ATP at 10 uM measured after 60 mins by TR-FRET assay
Sequence of CDC7/DBF4 (Cell division cycle 7-related protein kinase/Activator of S phase kinase) (Homo sapiens) (O00311 whole entry, looked up): as the sequence (O00311 whole entry) above
Sequence of CDC7/DBF4 (Cell division cycle 7-related protein kinase/Activator of S phase kinase) (Homo sapiens) (Q9UBU7 whole entry, looked up): as the sequence (Q9UBU7 whole entry) above

Compound | IC50 [1] [nM] | inhibition [3] [%] | inhibition [2]
Clc1ccc(CCSc2ncnc3[nH]cnc23)cc1 | 140 |  | Active
Clc1cccc(CCSc2ncnc3c2ncn3CCc2cccc(Cl)c2)c1 |  | 8 | 
Brc1ccc(CSc2[nH]cnc3ncnc2-3)cc1 | 440 |  | Active
O=C(CSc1ncnc2[nH]cnc12)c1ccc(Br)cc1 | 2120 |  | 
Ic1ccccc1CSc1ncnc2c1ncn2Cc1ccccc1I |  | 4 | 
N#Cc1ccc(CSc2ncnc3[nH]cnc23)cc1 | 290 |  | 
Clc1cccc(CNc2ncnc3nc[nH]c23)c1 | 3060 |  | 
FC(F)(F)c1ccccc1CSc1ncnc2c1ncn2Cc1ccccc1C(F)(F)F |  | 9 | 
Clc1ccccc1CSc1ncnc2[nH]cnc12 | 90 |  | Active
Fc1cccc(CSc2ncnc3[nH]cnc23)c1 | 360 |  | Active
c1ccc(CSc2ncnc3c2ncn3Cc2ccccc2)cc1 |  | 0 | 
FC(F)(F)c1cccc(CSc2ncnc3[nH]cnc23)c1 | 320 |  | Active
Brc1ccc(Sc2ncnc3[nH]cnc23)cc1 | 1380 |  | 
Clc1ccccc1CCSc1ncnc2c1ncn2CCc1ccccc1Cl |  | 4 | 
OCc1ccc(CSc2ncnc3[nH]cnc23)cc1 | 300 |  | 
O=C(CSc1[nH]cnc2ncnc1-2)c1ccc(Cl)cc1 | 4150 |  | 
c1ccc(CSc2ncnc3[nH]ccc23)cc1 | 230 |  | Active
Brc1cccc(CSc2ncnc3[nH]cnc23)c1 | 130 |  | 
Brc1cccc(CSc2ncnc3[nH]ccc23)c1 | 390 |  | 
Clc1cccc(CCSc2ncnc3[nH]cnc23)c1 | 300 |  | Active
c1ccc(CSc2ncnc3sccc23)cc1 |  | 18 | 
Clc1ccc(CCSc2ncnc3c2ncn3CCc2ccc(Cl)cc2)cc1 |  | 3 | 
FC(F)(F)c1ccccc1CSc1ncnc2[nH]cnc12 | 250 |  | Active
c1ccc(COc2[nH]cnc3ncnc2-3)cc1 | 170 |  | 
Ic1ccccc1CSc1ncnc2[nH]cnc12 | 580 |  | Active

More lines, main results first:

IC50 [1] [nM] | inhibition [3] [%] | Compound | inhibition [2]
390 |  | Fc1ccc(CCSc2ncnc3[nH]cnc23)cc1 | Active
190 |  | O=[N+]([O-])c1cccc(CSc2ncnc3[nH]cnc23)c1 | 
240 |  | COc1cccc(CSc2ncnc3[nH]cnc23)c1 | Active
910 |  | Brc1ccc(COc2ncnc3[nH]cnc23)cc1 | Active
1720 |  | COc1ccc(Sc2ncnc3[nH]cnc23)cc1 | 
360 |  | FC(F)(F)c1ccc(CSc2ncnc3[nH]cnc23)cc1 | Active
 | 30 | Clc1cccc(CSc2ncnc3c2ncn3Cc2cccc(Cl)c2)c1 | 
180 |  | Clc1ccc(CSc2[nH]cnc3ncnc2-3)cc1 | Active
470 |  | CC(=O)Nc1ccc(CSc2ncnc3[nH]cnc23)cc1 | 
300 |  | Ic1ccc(CSc2ncnc3[nH]cnc23)cc1 | Active
3110 |  | O=C(CSc1[nH]cnc2ncnc1-2)c1ccc([N+](=O)[O-])cc1 | 
340 |  | N#Cc1cccc(CSc2ncnc3[nH]cnc23)c1 | 
 | 12 | Fc1ccc(CCSc2ncnc3c2ncn3CCc2ccc(F)cc2)cc1 | 
130 |  | O=[N+]([O-])c1ccc(CSc2ncnc3[nH]cnc23)cc1 | Active
140 |  | CSc1ccc(CSc2ncnc3[nH]cnc23)cc1 | Active
190 |  | Clc1ccccc1CCSc1ncnc2[nH]cnc12 | Active
190 |  | Clc1cccc(COc2ncnc3[nH]cnc23)c1 | Active
 | 7 | Clc1ccccc1CSc1ncnc2c1ncn2Cc1ccccc1Cl | 
80 |  | Ic1cccc(CSc2ncnc3[nH]cnc23)c1 | Active
 | 11 | Brc1cccc(CSc2ncnc3sccc23)c1 | 
